In patent US20070078120A1, “Novel piperidine derivative” (priority 2003, published 2007):
Counter-ions that a name gives are not always drawn.

How the values were obtained:
LDL receptor [1] = assay: LDL receptor activity: amount of DiI-LDL uptaken into HepG2 cells; format: cell-based, human; conditions: DiI-LDL uptake into HepG2 cells, control group = 100%
Method: A preparation of 1,1′-dioctadecyl-3,3,3′,3′-tetramethylindocarbocyanine perchlorate (DiI)-labeled LDL (DiI-LDL) was carried out as follows. That is, DiI (invitrogen, the U.S.) was mixed with human LDL (CHEMICON, the U.S.), and the mixture was kept for 8 hours at 37° C. Thereto a specific density solution (d=1.182) was added and mixed, and then treated with super centrifugation operation (32 k rpm, 14 hours; using Beckman Ti55.2 rotator). After the centrifugation, the DiI labeled LDL fraction was taken up and prepared via a dialysis against saline.
The action on LDL receptor was determined with the amount of the DiI-LDL uptaken into HepG2 cells which was as an indicator. Namely, human hepatoma cell line HepG2 was bought from DAINIPPON PHARMACEUTICAL CO., LTD (Osaka, Japan) and it was used for the experiment. The HepG2 cells were plated on a 96 well plate and incubated with Dulbecco's modified Eagle/F-12 medium (DMEM/F-12) containing 10% fetal bovine serum and antibiotics for 2-3 days at 37° C. in a CO2 incubator. After washing the cells, DMEM/F-12 media containing the test compound, 10% delipoprotein serum and antibiotics was added thereto and cells were incubated for 19 hours at 37° C. The DiI-LDL was added thereto, and cells were incubated for additional 5 hours at 37° C. in a CO2 incubator. For the measurement of the amount of nonspecific DiI-LDL uptake, another 30-50 times the nonlabeled LDL was added additively to each well. After washing cells with Dulbecco's phosphate buffer (SIGMA, the U.S.), Dulbecco's phosphate buffer was added to each well, and then the fluorescence value was measured with a fluorescence plate reader to determine the amount of the DiI-LDL uptaken into cells. After measuring the fluorescence, the Dulbecco's phosphate buffer was removed. Cells were dissolved in 1N sodium hydroxide solution. Using a part of the solution, the protein amount was measured. The action of each compound on LDL receptor was estimated on the basis of 100% of the control group, using the value given by subtracting the nonspecifically uptaken amount from the calculated fluorescence value/protein amount.

LDL receptor [2] = assay: Measurement of LDL receptor expression: LDL-R protein amount by immunoblotting in HepG2 cells; format: cell-based, human; conditions: compared with the control group
Method: We investigated the effect of each test compound on the amount of LDL receptor in HepG2 cells, a human hepatoma cell line. Cells were seeded in each well of 6-well plates at the density of 7.5×10^5 cells/well (day 1). On day 3, the culture media was changed to a media containing lipoprotein deficient serum and the test compound. On day 4, the cells were scraped and then collected by centrifugation operation. The collected cells were lysed in a buffer containing 0.1% TritonX-100, treated with centrifugation, and then the supernatant was given as a cell protein solution. Using the prepared cell protein solution, the LDL-R protein amount was determined with an immunoblotting procedure.
HepG2 cells were treated with the compound of Examples 1-4, and then LDL receptor protein amount was determined by immunoblotting procedure.

Row | Compound | Activity of LDL receptor(%) (LDL receptor [1]; 10 μM) | other results
1 | COc1cccc([C@]2(C#N)CC[C@@H](NCc3ccccc3)CC2)c1 [Example 105, cis-4-(benzylamino)-1-(3-methoxyphenyl)-cyclohexanecarbonitrile] | 139 | 
2 | COc1cccc([C@]2(C#N)CC[C@H](N3CCNCC3)CC2)c1 (as salt: hydrochloride) [Example 58-1, trans-1-(3-methoxyphenyl)-4-piperazin-1-yl-cyclohexanecarbonitrile dihydrochloride] |  | melting point: 159 to 160 °C
3 | COc1cccc(C2(C#N)CCC(N3CCN(c4ncccn4)CC3)CC2)c1 (centres unmarked) [Example 82, 1-(3-methoxyphenyl)-4-(4-pyrimidin-2-yl-piperazin-1-yl)cyclohexanecarbonitrile] | 125 | 
4 | COc1cccc(C2(C#N)CCN(c3ccccc3OC)CC2)c1 [Example 1-4, 1-(2-methoxyphenyl)-4-(3-methoxyphenyl)-piperidine-4-carbonitrile] | 134 | LDL receptor protein amount (immunoblotting) (LDL receptor [2]; 1 μM): superior activity enhancing the protein amount of LDL receptor; LDL receptor protein amount (immunoblotting) (LDL receptor [2]; 10 μM): superior activity enhancing the protein amount of LDL receptor
5 | COc1cccc([C@]2(C#N)CC[C@H](N3CCNCC3)CC2)c1 [Example 58-1, trans-1-(3-methoxyphenyl)-4-piperazin-1-yl-cyclohexanecarbonitrile dihydrochloride] | 152 | 
6 | COc1cccc(C2(CN3CCCCC3)CCN(c3ccccc3OC)CC2)c1 [Example 55-1, 1-(2-methoxyphenyl)-4-(3-methoxyphenyl)-4-(piperidin-1-ylmethyl)piperidine] |  | Activity of LDL receptor(%) (LDL receptor [1]; 1 μM): 141%
7 | COc1cccc(C2(C#N)CCN(C3CCNCC3)CC2)c1 [Example 85, 4-(3-methoxyphenyl)-1,4′-bipiperidine-4-carbonitrile dihydrochloride] | 149 | 
8 | COc1cccc(C2(C#N)CCN(c3ncccc3OCc3ccccc3)CC2)c1 [Example 6-3, 1-[3-(Benzyloxy)pyridin-2-yl]-4-(3-methoxyphenyl)-piperidine-4-carbonitrile] | 127 | 
9 | 1-(2-methoxyphenyl)-4-[3-(methylamino)-phenyl]piperidine-4-carbonitrile and 4-[3-(dimethylamino)-phenyl]-1-(2-methoxyphenyl)piperidine-4-carbonitrile [Example 20] | 123 | 
10 | COc1cccc(C2(C(=O)NCc3ccccc3)CCN(c3ncccn3)CC2)c1 [Example 43-2, N-benzyl-4-(3-methoxyphenyl)-1-pyrimidin-2-ylpiperidine-4-carboxyamide] | 116 | 
11 | COc1cccc(C2(CO)CCN(c3ccccc3OC)CC2)c1 [Example 12, [1-(2-Methoxyphenyl)-4-(3-methoxyphenyl)piperidin-4-yl]-methanol] | 134 | 
12 | COc1cccc(C2(C#N)CCN(C3CCN(Cc4ccccc4)CC3)CC2)c1 [Example 89, 1′-benzyl-4-(3-methoxyphenyl)-1,4′-bipiperidine-4-carbonitrile] | 195 | 
13 | COc1cccc(C2(C(N)=O)CC3CCC(C2)N3c2ccccc2OC)c1 (centres unmarked) [Example 49-f, 8-(2-Methoxyphenyl)-3-(3-methoxyphenyl)-8-azabicyclo-[3.2.1]octane-3-carboxyamide] | 135 | 
14 | COc1cccc(C2(C#N)CCN(c3nc4ccccc4s3)CC2)c1 [Example 7-3, 1-(1,3-Benzothiazol-2-yl)-4-(3-methoxyphenyl)piperidine-4-carbonitrile] |  | Activity of LDL receptor(%) (LDL receptor [1]; 3 μM): 125%
15 | COc1cccc(C2(C(=S)NCc3ccccc3)CCN(c3ncccn3)CC2)c1 [Example 44, N-benzyl-4-(3-methoxyphenyl)-1-pyrimidin-2-ylpiperidine-4-carbothioamide] |  | Activity of LDL receptor(%) (LDL receptor [1]; 3 μM): 135%
